In test [1] the target is Tubulin alpha chain (Sus scrofa) (UniProt P02550). In words: Binding affinity of [3H]- colchicine (5.0 uM) to tubulin (1.0 uM, 0.1 mg/mL) was evaluated at concentration of 50 uM.
Test [2] has the same target. Particulars: at 5 µM.
For the next test, the system named is CA46. In words: Inhibits the growth of the human Burkitt lymphoma CA46 cell. Type of test: functional, cell-based.
The target in the next test is Tubulin. In words: Inhibition of Tubulin polymerization after 20 minutes of administration at 30 degree Centigrade. The class given is functional, organism-based.

Chain of Tubulin alpha chain (Sus scrofa) (P02550 whole entry, looked up): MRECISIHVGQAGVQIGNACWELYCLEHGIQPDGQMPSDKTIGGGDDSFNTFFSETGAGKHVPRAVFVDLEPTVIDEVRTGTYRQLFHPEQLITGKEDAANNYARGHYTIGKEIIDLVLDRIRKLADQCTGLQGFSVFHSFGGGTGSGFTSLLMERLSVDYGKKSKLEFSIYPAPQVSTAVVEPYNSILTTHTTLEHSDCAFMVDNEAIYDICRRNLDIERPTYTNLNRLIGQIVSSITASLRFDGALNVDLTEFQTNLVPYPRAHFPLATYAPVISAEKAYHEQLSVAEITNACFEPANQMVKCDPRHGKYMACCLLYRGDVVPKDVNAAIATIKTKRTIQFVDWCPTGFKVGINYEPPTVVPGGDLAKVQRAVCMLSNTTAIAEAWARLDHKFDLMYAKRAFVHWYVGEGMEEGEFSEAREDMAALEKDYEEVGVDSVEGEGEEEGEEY

For `COc1cc2c(c(OC)c1OC)-c1ccc(SC)c(=O)cc1[C@H](O)CC2`, the inhibition (as a rule, the share of the control response that was lost under treatment) in test [1] is 73%; in test [2], 16%.
Turning to `COc1cc2c(c(OC)c1OC)-c1ccc(SC)c(=O)cc1[C@H](OC(C)=O)CC2`, the IC50 (in general, the concentration that inhibits the measured activity by half) in the test on CA46 turned out to be 40000 nM. The results for the inhibition in test [1] and in test [2] were 74% and 11%, respectively.
Consider `COc1cc2c(c(OC)c1OC)-c1ccc(SC)c(=O)cc1C(OC(=O)c1ccccc1)CC2` (centres undefined), for which it took 1400 nM to reach half-maximal inhibition on Tubulin (IC50).
`COc1cc2c(c(OC)c1OC)-c1ccc(SC)c(=O)cc1C(Br)CC2` (centres undefined) had a 50% inhibitory concentration (IC50) on Tubulin of 1100 nM.
With `COc1cc2c(c(OC)c1OC)-c1ccc(SC)c(=O)cc1C(OC(=O)c1ccncc1)CC2` (centres undefined) [listing 1 of 2 here], the half-maximal inhibitory concentration (IC50) against Tubulin came out at 970 nM.
In the test on CA46, `COc1cc2c(c(OC)c1OC)-c1ccc(SC)c(=O)cc1[C@@H](O)CC2` had a half-inhibitory concentration (IC50) of 2800 nM. This compound came in with an inhibition in test [2] of 85%.
Consider `COc1cc2c(c(OC)c1OC)-c1ccc(SC)c(=O)cc1[C@@H](OC(=O)c1cccnc1)CC2`, for which the results for the IC50 against Tubulin and in the test with CA46 were 760 nM and 27000 nM, respectively. Further, in test [2], the inhibition came to 65%.
In turn, `CCCC(=O)OC1CCc2cc(OC)c(OC)c(OC)c2-c2ccc(SC)c(=O)cc21` (centres undefined) came in with an IC50 at Tubulin of 1500 nM.
On the same count and under the same terms, then `COc1cc2c(c(OC)c1OC)-c1ccc(SC)c(=O)cc1C(OC(=O)c1ccncc1)CC2` (centres undefined) [listing 2 of 2 here], with 1100 nM.
As for `COc1cc2c(c(OC)c1OC)-c1ccc(SC)c(=O)cc1[C@@H](OC(=O)c1ccncc1)CC2`, the IC50 is 560 nM against Tubulin and 2800 nM in the test on CA46. In test [2], this compound yielded an inhibition of 69%.
With `COc1cc2c(c(OC)c1OC)-c1ccc(SC)c(=O)cc1[C@@H](OC(C)=O)CC2`, the half-maximal inhibitory concentration (IC50) in the test with CA46 came to 3400 nM. In test [2], this compound showed an inhibition of 79%.
As to `COc1cc2c(c(OC)c1OC)-c1ccc(SC)c(=O)cc1C(=O)CC2` [THIOCOLCHICONE], the values for the IC50 against Tubulin and with CA46 were 760 nM and 18000 nM, respectively. This compound returned an inhibition in test [2] of 70%.
For `COc1cc2c(c(OC)c1OC)-c1ccc(SC)c(=O)cc1C(OC(=O)c1cccnc1)CC2` (centres undefined), the IC50 against Tubulin worked out at 880 nM.
Consider `COc1cc2c(c(OC)c1OC)-c1ccc(SC)c(=O)cc1[C@@H](OC(=O)C13CCC(C)(C(=O)O1)C3(C)C)CC2` (some centres undefined), for which the midpoint of inhibition on Tubulin, the IC50, lay at 1400 nM.
On the same count and under the same terms, then `COc1cc2c(c(OC)c1OC)-c1ccc(SC)c(=O)cc1[C@H](OC(=O)C13CCC(C)(C(=O)O1)C3(C)C)CC2` (some centres undefined), with 17000 nM.
On to `CCCC(=O)O[C@H]1CCc2cc(OC)c(OC)c(OC)c2-c2ccc(SC)c(=O)cc21`, for which the half-inhibitory concentration (IC50) on Tubulin was 850 nM; with CA46, 29000 nM. This compound also showed an inhibition in test [2] of 66%.

The values are drawn from ChEMBL document CHEMBL1129977, “Antitumor agents. 172. Synthesis and biological evaluation of novel deacetamidothiocolchicin-7-ols and ester analogs as antitubulin agents” (J Med Chem, 1997).
